Data on nine molecules can be found in patent publication US9717725B2, “Use of opioid antagonists” (THE UNIVERSITY OF CHICAGO, priority 2005, dated 2017).

One may read the IC50 as the concentration that inhibits the measured activity by half. A high value points to lower potency.

“Also recorded” adds a separate entry of the source.

One data set relates to S1P3 receptor. Briefly: Tyrosine phosphorylation of the S1P3 receptor in EC (Example 9). In kind it is cell-based, human. The note with it: for induction of tyrosine phosphorylation of the S1P3 receptor: EC.
Another data set has as its system PDGF receptor. Briefly: Tyrosine phosphorylation of the PDGF receptor in EC (Example 9). Format: cell-based, human. The note with it: for induction of tyrosine phosphorylation of the PDGF receptor: EC.
Another data set relates to RhoA. The data set can be described thus: RhoA activation assay (RBD bead pull-down, immunoblot). The note with it: EC. In kind it is cell-based, human. For orientation: In western blotting, separated proteins are transferred to a membrane and probed.
Data set [1] has as its system human pulmonary microvascular endothelial cells (HPMVEC). Briefly: Human pulmonary microvascular EC migration assay (Transwell). In kind it is cell-based. Conditions: for agonist-induced EC migration (% migration): agonist in lower chamber, Transwell.
The test system is the same in data set [2]. Briefly: Human pulmonary microvascular EC proliferation assay (CellTiter96 MTS). Format: cell-based. The note with it: for agonist-induced EC proliferation: serum-free media with agonist, MTS assay. A general note: Tetrazolium dyes change colour on reduction, which living cells bring about.
The subject of a further data set is VEGF receptor 1 (Flt-1). Briefly: Tyrosine phosphorylation of VEGF receptor 1 (immunoprecipitation/immunoblot). In kind it is cell-based, human. Conditions: HPMVEC.
The test system of the next data set is VEGF receptor 2 (Flk-1). Briefly: Tyrosine phosphorylation of VEGF receptor 2 (immunoprecipitation/immunoblot). Format: cell-based, human. The note with it: HPMVEC.
The next data set relates to VEGF receptor. The data set can be described thus: Tyrosine phosphorylation of the VEGF receptor in EC (Example 9). In kind it is cell-based, human. Conditions: for induction of tyrosine phosphorylation of the VEGF receptor: EC.
In data set [3] the test system is microvascular endothelial cells. Briefly: VEGF induced migration of endothelial cells, combination (Example 10). In kind it is cell-based. The note with it: combination of methylnaltrexone and Bevacizumab.
In data set [4] the test system is proliferative retinopathy. Conditions: sickle cell disease (Gupta et al., personal communication); cited from earlier work.
In the next data set the test system is Flk-1 expression. The note with it: morphine-treated mice versus controls (K. Gupta, personal communication); cited from earlier work.
The next data set concerns the target mu-opioid receptor (Homo sapiens, UniProt P35372). The data set can be described thus: Serine/threonine phosphorylation of the mu-opioid receptor in EC (Example 9). Format: cell-based. Conditions: for induction of serine/threonine phosphorylation of the mu-opioid receptor: EC.
For data set [5], the system named is SW 480 human colorectal cancer cell line. The data set can be described thus: Effects on SW 480 cancer cell line.
For data set [6], the system named is microvascular endothelial cells. The data set can be described thus: VEGF induced proliferation of endothelial cells, combination (Example 10). Format: cell-based. The note with it: combination of methylnaltrexone and 5-FU.
A further data set concerns tumors. Briefly: Treatment of tumor-bearing mice (Examples 4-7). Format: in vivo. The note with it: eight weeks; for tumor growth and angiogenesis: antagonist orally 5 mg/kg/day with morphine 0.5 mg/kg/day; for angiogenesis and tumor growth, combination of opioid, opioid antagonist and anticancer agent: with morphine and bevacizumab (Avastin) 5 mg/kg every 14 days.
Data set [7] has as its system Lewis lung carcinoma (LLC) tumor. Briefly: LLC flank tumor model, continuous MNTX infusion. The note with it: for appearance of macrometastases in the lungs / appearance of micrometastases in the lungs: continuous infusion 10 mg/kg/day. Format: in vivo, C57BL/6J mice.
Data set [8] deals with Lewis lung carcinoma (LLC) cells. Briefly: LLC cell proliferation in vitro. Format: cell-based. The note with it: treatment in vitro with methylnaltrexone.
A further data set deals with tumor. Briefly: Study in human cancer patients (Examples 6-7). The note with it: antagonist orally 5 mg/kg/day for eight weeks with opioid and bevacizumab (Avastin). Format: in vivo.
For data set [9] the following is noted: doses maintaining plasma levels about 25 and 150 ng/mL (Yuan et al.); cited from earlier work.
The subject of data set [10] is Lewis lung carcinoma (LLC) cells. The data set can be described thus: LLC cell invasion assay (Chemicon Cell Invasion Assay Kit). Format: cell-based. Conditions: methylnaltrexone (10 nM or 100 nM).
For data set [11] the following is noted: J. Foss, et al.; cited from earlier work.
Where [12] appears, read: pretreatment with MNTX 0.1 μM, 1 hour.
[13] abbreviates: summary statement, concentration dependence.

Chain of mu-opioid receptor (P35372 whole entry): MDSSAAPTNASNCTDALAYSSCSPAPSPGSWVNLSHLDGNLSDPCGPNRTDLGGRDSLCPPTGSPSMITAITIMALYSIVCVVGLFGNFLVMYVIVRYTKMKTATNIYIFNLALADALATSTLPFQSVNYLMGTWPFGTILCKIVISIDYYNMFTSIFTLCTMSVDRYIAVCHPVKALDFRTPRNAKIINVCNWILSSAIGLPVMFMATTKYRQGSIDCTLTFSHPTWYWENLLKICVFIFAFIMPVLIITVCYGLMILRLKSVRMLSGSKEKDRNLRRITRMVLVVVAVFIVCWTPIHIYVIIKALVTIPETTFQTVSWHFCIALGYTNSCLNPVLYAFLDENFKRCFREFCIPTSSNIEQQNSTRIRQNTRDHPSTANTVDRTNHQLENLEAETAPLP

With `C[C@@H](NC(=O)[C@@H](N)Cc1ccc(O)cc1)C(=O)NCC(=O)N(C)[C@@H](Cc1ccccc1)C(=O)NCCO` [DAMGO, [D-Ala^2, N-McPhe^4, Gly^5-ol]-enkephalin], the “induction of tyrosine phosphorylation of the S1P3 receptor” value in the data set with S1P3 receptor is “induced tyrosine phosphorylation”. Besides, the “induction of tyrosine phosphorylation of the PDGF receptor” value in the data set on PDGF receptor is reported as “induced tyrosine phosphorylation”. The “RhoA activation by agonist” value with RhoA is recorded as “stimulate RhoA activation”. Besides, the “agonist-induced EC migration (% migration)” value in data set [1] is “induce HPMVEC migration; also recorded: induced”. Further, the “agonist-induced EC proliferation” value in [2] is recorded as “stimulate HPMVEC proliferation; also recorded: induced proliferation”. In the data set on VEGF receptor 1 (Flt-1), the “induction of tyrosine phosphorylation of VEGF receptor 1 (Flt-1)” value is “induce tyrosine phosphorylation”. Also, in the data set on VEGF receptor 2 (Flk-1), the “induction of tyrosine phosphorylation of VEGF receptor 2 (Flk-1)” value was “induce tyrosine phosphorylation”. Further, the “induction of tyrosine phosphorylation of the VEGF receptor” value in the data set on VEGF receptor was “induced tyrosine phosphorylation”.

“Bevacizumab: anti-VEGF mab (Avastin, Genentech)”: in [3], the “inhibition of VEGF induced migration of endothelial cells by the combination” value is “synergistically inhibit”.

Consider `CN1CC[C@]23c4c5ccc(O)c4O[C@H]2[C@@H](O)C=C[C@H]3[C@H]1C5` [morphine], for which the “induction of tyrosine phosphorylation of the S1P3 receptor” value in the data set on S1P3 receptor is given as “induced tyrosine phosphorylation”. Further, the “induction of tyrosine phosphorylation of the PDGF receptor” value in the data set on PDGF receptor is recorded as “induced tyrosine phosphorylation”. The “induction of proliferative retinopathy” value in [4] is listed as “induced proliferative retinopathy”. In addition, the “RhoA activation by agonist” value in the data set on RhoA and in the data set with RhoA (listed as MS) was “stimulate RhoA activation” each time. The “agonist-induced EC migration (% migration)” value in data set [1] is given as “induced”; in [1] (listed as MS), “induce HPMVEC migration”. The “agonist-induced EC proliferation” value is given as “induced proliferation” in [2] and “stimulate HPMVEC proliferation” in data set [2] (listed as MS). The “induction of tyrosine phosphorylation of VEGF receptor 1 (Flt-1)” value with VEGF receptor 1 (Flt-1) was “induce tyrosine phosphorylation”. Also, the “induction of tyrosine phosphorylation of VEGF receptor 2 (Flk-1)” value in the data set with VEGF receptor 2 (Flk-1) is listed as “induce tyrosine phosphorylation”. Also, in the data set on Flk-1 expression, the “increase in F11 c-1 expression” value was 10 fold. For the same molecule, in the data set with VEGF receptor, the “induction of tyrosine phosphorylation of the VEGF receptor” value is given as “induced tyrosine phosphorylation”.

For the molecule PDGF, in the data set on RhoA, the “RhoA activation by agonist” value is “activation”. In addition, the “agonist-induced EC migration (% migration)” value in data set [1] was “induced”. For the same molecule, the “agonist-induced EC proliferation” value in [2] is recorded as “induced proliferation”. Also, the “induction of serine/threonine phosphorylation of the mu-opioid receptor” value on mu-opioid receptor is listed as “induced serine/threonine phosphorylation”.

In turn, `O=c1[nH]cc(F)c(=O)[nH]1` [5-FU, 5-fluorouracil] displayed a concentration for half-maximal inhibition (IC50) in [5] (Homo sapiens, SW480) of approximately 10 µM. For the same molecule, the “inhibition of VEGF induced proliferation of endothelial cells by the combination” value in [6] is given as “synergistically inhibit”.

As for `C[N@+]1(CC2CC2)CC[C@]23c4c5ccc(O)c4O[C@H]2C(=O)CC[C@@]3(O)[C@H]1C5` [methylnaltrexone, N-methylnaltrexone], in the data set with tumors, the “tumor growth and angiogenesis” value is “reduction in tumor growth and angiogenesis”; the “angiogenesis and tumor growth, combination of opioid, opioid antagonist and anticancer agent” value (“angiogenesis and tumor growth” for short) is “enhanced result”. The “attenuation of agonist induced S1P3 receptor phosphorylation” value in the data set with S1P3 receptor (MNTX pretreatment of EC) is recorded as “attenuated”. The “attenuation of agonist induced PDGF receptor phosphorylation” value with PDGF receptor (MNTX pretreatment of EC) is “attenuated”. Further, in data set [7], the “appearance of macrometastases in the lungs” value is “attenuated” and the “appearance of micrometastases in the lungs” value was “attenuated”. Also, in data set [7] (listed as MNTX), the “appearance of macrometastases in the lungs” value was “attenuated; also recorded: inhibition; also recorded: decrease in lung macrometastases” and the “appearance of micrometastases in the lungs” value is given as “attenuated; also recorded: inhibition”. Moreover, the “attenuation of tumor growth” value in [7] (infusion 10 mg/kg/day, wild-type mice injected with LLC cells) was “up to 90%”. In addition, the “inhibition of VEGF induced migration of endothelial cells by the combination” value in data set [3] is on record as “synergistically inhibit”. Besides, the “reduction of LLC proliferation” value in data set [8] is on record as “significantly reduced; also recorded: dose-dependent inhibition”. For the same molecule, the “inhibition of agonist-induced RhoA activation” value in the data set on RhoA (agonists morphine, DAMGO, VEGF (S1P, PDGF), listed as MNTX) is “inhibited; also recorded: attenuated”. For the same molecule, the “inhibition of MS, DAMGO and VEGF induced HPMVEC migration” value in data set [1] (100 nM MNTX, 100 nM agonist, 18 hours) is reported as “inhibited”. In [1] (setting [12]), the “inhibition of S1P, VEGF, PDGF, morphine and DAMGO induced EC migration” value is “inhibited”. In [1] (setting [13]), the “inhibition of opioid- and growth factor-induced migration of endothelial cells” value is listed as “in a concentration dependent manner”. For the same molecule, the “attenuation of MS, DAMGO and VEGF stimulated HPMVEC proliferation” value in [2] (100 nM MNTX, 100 nM agonist, 24 h) is “attenuated”. In addition, the “inhibition of S1P, VEGF, PDGF, morphine and DAMGO induced EC proliferation” value in data set [2] (setting [12]) is given as “inhibited”. In addition, in data set [2] (setting [13]), the “inhibition of opioid- and growth factor-induced proliferation of endothelial cells” value is “in a concentration dependent manner”. The “angiogenesis and tumor growth” value in the data set on tumor is reported as “enhanced result”. In addition, the tolerability result in data set [9] was “well tolerated”. Moreover, the antiproliferation activity result in data set [5] (MNTX alone, P<0.01 compared to control) is “possesses antiproliferation activity”. In addition, the “enhancement of 5-FU's tumoricidal effect” value in [5] (with 5-FU 10 μM, P<0.05 compared to 5-FU 10 μM only) is “enhanced 5-FU's tumoricidal effect”. For the same molecule, in the data set on VEGF receptor 1 (Flt-1), the “attenuation of VEGF induced tyrosine phosphorylation of VEGF receptor 1” value is given as “attenuates”; the “block of MS and DAMGO induced tyrosine phosphorylation of VEGF receptor 1 (Flt-1)” value is “blocked”. For the same molecule, in the data set on VEGF receptor 2 (Flk-1), the “attenuation of VEGF induced tyrosine phosphorylation of VEGF receptor 2” value is on record as “attenuates”; the “block of MS and DAMGO induced tyrosine phosphorylation of VEGF receptor 2 (Flk-1)” value was “blocked”. In addition, the “inhibition of VEGF induced proliferation of endothelial cells by the combination” value in [6] was “synergistically inhibit”. In addition, the “reduction of LLC invasion” value in data set [10] is reported as “significantly reduced; also recorded: dose-dependent inhibition”. For the same molecule, in the data set with VEGF receptor (MNTX pretreatment of EC), the “attenuation of agonist induced VEGF receptor phosphorylation” value is reported as “attenuated”. Further, the “attenuation of agonist induced mu-opioid receptor phosphorylation” value on mu-opioid receptor (MNTX pretreatment of EC) is listed as “attenuated”.

With `C[C@H]1CN(C[C@H](Cc2ccccc2)C(=O)NCC(=O)O)CC[C@@]1(C)c1cccc(O)c1` [alvimopan], in the data set with tumors, the “tumor growth and angiogenesis” value was “reduction in tumor growth and angiogenesis”; the “angiogenesis and tumor growth” value was “enhanced result”. Besides, the “angiogenesis and tumor growth” value in the data set with tumor was “enhanced result”. The “transpassage across the membrane” value in [11] is given as “some transpassage”.

As to VEGF, the “RhoA activation by agonist” value in the data set with RhoA is reported as “stimulate RhoA activation”. The “agonist-induced EC migration (% migration)” value in [1] is recorded as “induce HPMVEC migration; also recorded: induced”. Further, the “agonist-induced EC proliferation” value in data set [2] is “stimulate HPMVEC proliferation; also recorded: induced proliferation”. Moreover, at mu-opioid receptor, the “induction of serine/threonine phosphorylation of the mu-opioid receptor” value was “induced serine/threonine phosphorylation”.

For the molecule `CCCCCCCCCCCCC/C=C/[C@@H](O)[C@@H](N)COP(=O)(O)O` [S1P, sphingosine 1-phosphate], in the data set on RhoA, the “RhoA activation by agonist” value was “activation”. In [1], the “agonist-induced EC migration (% migration)” value was “induced”. Moreover, in [2], the “agonist-induced EC proliferation” value is “induced proliferation”. For the same molecule, the “induction of serine/threonine phosphorylation of the mu-opioid receptor” value at mu-opioid receptor was “induced serine/threonine phosphorylation”.
